This is an account of results in patent publication US4256757A, “1-Substituted imidazoles for inhibition of thromboxane synthetase” (Ono Pharmaceutical Co., Ltd., priority 1978, dated 1981).

Data set [1] deals with T1, thromboxane synthetase from rabbit platelet microsomes (Oryctolagus cuniculus, UniProt G1TAZ9).
T1 construct: thromboxane synthetase from rabbit platelet microsomes; from tissue; host or cells: rabbit platelet microsomes
T1 sequence (G1TAZ9 1-530): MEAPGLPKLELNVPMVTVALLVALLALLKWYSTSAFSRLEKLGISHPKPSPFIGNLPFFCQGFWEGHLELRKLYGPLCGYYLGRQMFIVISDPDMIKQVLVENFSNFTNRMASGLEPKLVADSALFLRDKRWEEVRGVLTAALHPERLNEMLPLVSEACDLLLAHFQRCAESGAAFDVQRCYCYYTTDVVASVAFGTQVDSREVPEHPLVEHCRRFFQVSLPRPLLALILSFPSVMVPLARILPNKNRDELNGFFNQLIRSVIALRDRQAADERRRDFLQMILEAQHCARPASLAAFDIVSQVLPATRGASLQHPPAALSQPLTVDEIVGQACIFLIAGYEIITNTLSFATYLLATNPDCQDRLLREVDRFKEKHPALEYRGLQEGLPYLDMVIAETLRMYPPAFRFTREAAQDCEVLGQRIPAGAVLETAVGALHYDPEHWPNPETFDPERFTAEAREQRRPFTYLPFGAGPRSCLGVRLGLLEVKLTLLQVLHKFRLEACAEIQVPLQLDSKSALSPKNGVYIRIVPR
The data set can be described thus: inhibition of thromboxane synthetase (conversion of prostaglandin H2 into thromboxane B2). Type of data set: biochemical.

The subject of data set [2] is arachidonic acid-induced blood platelet aggregation in platelet-rich plasma of rats. The data set can be described thus: inhibition of arachidonic acid-induced blood platelet aggregation in platelet-rich plasma. The class given is cell-based. The note with it: Rattus norvegicus, read-out: concentration producing a 50% inhibition of arachidonic acid-induced blood platelet aggregation, in comparison with controls.

A further data set can be described thus: acute toxicity test. The note with it: mouse, in vivo; ICR-stain male mice (7 weeks old), intravenous administration.
In data set [3] the test system is arachidonic acid-induced sudden deaths of rabbits. The data set can be described thus: inhibitory effect on arachidonic acid-induced sudden deaths. Type of data set: in vivo. The note with it: oral administration, 100 mg/kg animal body weight.
Data set [4] deals with thromboxane synthetase. The note with it: reported in Prostaglandins, 13(4), 611(1977); cited from earlier work.
In data set [5] the test system is thromboxane synthetase. As to the kind of experiment: inhibitory action for thromboxane synthetase (prior art). Type of data set: biochemical. As to conditions: prior-art compound, comparison in words. An excerpt: However, since their inhibitory action for thromboxane synthetase is weak, these compounds are hardly applicable as practically effective medicines.
On the other hand, N-(6-methoxycarbonylhexyl)imidazole has already been synthesized by P. Matthias et al, and publicly known [Monatsch Chem., 108(5), 1059(1977)].

≈ marks a conversion by molar mass, not a printed value. Counter-ions that a name gives are not always drawn.

`CCCCC(CCCn1ccnc1)C(=O)OCC` (racemic) [1-[(4RS)-4-ethoxycarbonyloctyl]imidazole]: in data set [1], the IC50 stood at 90 nM. Consider `CC(CCCCCn1ccnc1)CC(=O)O.Cl` (racemic) [1-[(6RS)-7-carboxy-6-methylheptyl]imidazole hydrochloride], for which the IC50 stood at 0.53 µg/mL in data set [2] and 130 nM in data set [1].

One may read the LD50 as the dose at which mortality reaches 50%. A low value points to greater toxicity. Regarding `CC(CCCCCCn1ccnc1)C(=O)O.Cl` (racemic) [1-[(7RS)-7-carboxyoctyl]imidazole hydrochloride], the IC50 in data set [2] was 0.17 µg/mL. In the data set “acute toxicity test”, this molecule showed an LD50 of 540 mg/kg. For the same molecule, in data set [3], the “inhibitory effect on arachidonic acid-induced sudden deaths” value is recorded as “inhibitory effect”.

`CCOC(=O)C(C)CCCCCCn1ccnc1` (racemic) [1-[(7RS)-7-ethoxycarbonyloctyl]imidazole]: the IC50 in data set [2] came out at 0.052 µg/mL (≈ 0.206 µM); in data set [1] it was 1000 nM. For `CC(C)(CCCCCCC(=O)O)n1ccnc1.Cl` [1-(7-carboxy-1,1-dimethylheptyl)imidazole hydrochloride], the IC50 in data set [2] came to 0.18 µg/mL; in data set [1], 71 nM. For `Cl.O=C(O)CCCCC#CCn1ccnc1` [1-(7-carboxy-2-heptynyl)imidazole hydrochloride], the IC50 in data set [2] turned out to be 0.21 µg/mL. Further, the “inhibitory effect on arachidonic acid-induced sudden deaths” value in data set [3] is “inhibitory effect”. For the molecule `Cl.O=C(O)C#CCCCCCn1ccnc1` [1-(7-carboxy-6-heptynyl)imidazole hydrochloride], in data set [2], the IC50 was 4 µg/mL. For the molecule `CC(C)(CCCCCCn1ccnc1)C(=O)O.Cl` [1-(7-carboxy-7-methyloctyl)imidazole hydrochloride], the IC50 in data set [2] amounted to 0.091 µg/mL. Further, the LD50 in “acute toxicity test” was 330 mg/kg. Moreover, the “inhibitory effect on arachidonic acid-induced sudden deaths” value in data set [3] is reported as “inhibitory effect”. On to `CCOC(=O)C(C)(C)CCCCCCn1ccnc1` [1-(7-ethoxycarbonyl-7-methyloctyl)imidazole], for which the results for the IC50 in data set [2] and in data set [1] were 0.44 µg/mL (≈ 1.65 µM) and 30 nM, respectively.

As for `Cn1ccnc1` [1-methylimidazole], the “inhibitory action for thromboxane synthetase” value in the data set with thromboxane synthetase [4] is recorded as “weak”. `O=C(O)CCCC/C=C\Cn1ccnc1` [(Z)-1-(7-carboxy-2-heptenyl)imidazole hydrochloride]: the IC50 in data set [1] came out at 16 nM.

`O=C(O)/C=C\CCCCCn1ccnc1` [(Z)-1-(7-carboxy-6-heptenyl)imidazole hydrochloride] displayed an IC50 in data set [1] of 200 nM. As for `COC(=O)CCCCCCn1ccnc1` [N-(6-methoxycarbonylhexyl)imidazole], the “inhibitory effect on thromboxane synthetase compared with imidazole or 1-methylimidazole” value in the data set on thromboxane synthetase [5] is listed as “stronger inhibitory effect”.

`c1c[nH]cn1` [imidazole]: the “inhibitory action for thromboxane synthetase” value with thromboxane synthetase [4] is on record as “weak”.
